What all share (assay type): physicochemical
A short description of series [1]: Gelation test in solvents at room temperature. The note with it: Table 3. Details: key: S, soluble (starting test at 20 mg/mL); I, insoluble; P, precipitate; G, stable gel, the numbers after G are preliminary MGCs in mg/mL; UG, slightly unstable gels or partial gels, concentrations are 20 mg/mL unless otherwise noted. On the procedure: (§1) Gelation tests were performed by adding incremental amounts of compounds to a solvent or solvent system at room temperature and observing the results (i.e., gel formation, solubility of compounds, insolubility of compounds, or formation of a precipitate). […] The term “precipation” means that the compound dissolves upon heating and sonicating, however, it crashes out of solution when the heat is removed.
(§2) After the compounds were synthesized, they were screened for gelation properties. […] For the compounds with new chiral centers, they formed gels in aqueous environment preferentially.

Series [2] is described as follows: Gelation test in solvents at room temperature. Also on record: key to Gelation test result: I, insoluble; P, precipitating; S, soluble at ~20 mg/mL; G, gel at room temperature; number is minimum gelation concentration. The note with it: for preliminary MGC (stable gel) / Gelation result / concentration of slightly unstable or partial gel (UG): Table 3; for Gelation test result: room temperature. On the procedure:
as §1, §2

Series [3] in a line: Gelation test in solvents at room temperature. Also on record: key: I, insoluble; P, precipitating; S, soluble at ~20 mg/mL; G, gel at room temperature; number is minimum gelation concentration. To be noted: Table 3. On the procedure:
as §1, §2

Molecules are shown by their SMILES. Non-standard residues stand in square brackets, D forms with d. Residues, ends and D or L forms follow the SMILES beside them. *: point of attachment. Nphe = O=C(O)CNCc1ccccc1; Bz = O=C(c1ccccc1)*

In the case of `COc1ccc(C(C(=O)NC2CCCCC2)N(Cc2ccccc2)C(C)=O)cc1` (racemic) [Compound 37], the Gelation result in series [1] (DMSO:H2O 1:2) is “P”; in series [1] (EtOH:H2O (1:2)), “G”; in series [1] (Water) it was “UG”; in series [2] (EtOH), “S (S, soluble (starting test at 20 mg/mL))”; in series [3] (Hexane) it was “I”. In addition, in series [2] (EtOH:H2O (1:2)), the “preliminary MGC (stable gel)” value is reported as 15.0 mg/mL. In addition, in series [2] (Water), the “concentration of slightly unstable or partial gel (UG)” value (shortened to “concentration”) is listed as 17.0 mg/mL.
For `COc1ccc(C(C(=O)NC2CCCCC2)N(C(C)=O)[C@H](C)c2ccccc2)cc1` (single isomer, unassigned) [Compound 38a], the Gelation result in series [1] (DMSO:H2O 1:2) is reported as “UG”; in series [1] (Hexane), “P”; in series [1] (Water), “UG”; in series [2] (EtOH) it was “S (S, soluble (starting test at 20 mg/mL))”; in series [3] (EtOH:H2O (1:2)), “I”. Also, the “concentration” value in series [2] (DMSO:H2O 1:2) stood at 18.0 mg/mL; in series [2] (Water), 17.0 mg/mL.
For the compound `COc1ccc(C(C(=O)NC2CCCCC2)N(C(C)=O)[C@H](C)c2ccccc2)cc1` (single isomer, unassigned) [Compound 38b], the Gelation result is reported as “P” in series [1] (EtOH:H2O (1:2)), “G” in series [1] (Water) and “I” in series [3] (DMSO:H2O 1:2). The “preliminary MGC (stable gel)” value in series [2] (Water) is given as 21.0 mg/mL.
`CCOC(=O)CNC(=O)CN(Cc1ccccc1)C(=O)c1ccccc1` [Compound 22, Ethyl 2-(2-(N-benzylbenzamido)acetamido)acetate] (Bz-[Nphe]-Gly-OEt): the Gelation test result in series [2] (DMSO:H2O (1:1)) is reported as “S (S, soluble at ~20 mg/mL)”; in series [2] (DMSO:H2O (1:2)), “P”; in series [2] (EtOH) it was “P”; in series [2] (EtOH:H2O (1:1)) it was “P”; in series [2] (EtOH:H2O (1:2)), “P”; in series [2] (H2O) it was “S (S, soluble at ~20 mg/mL)”. Moreover, the Gelation test result in series [2] (Hexane) was “S (S, soluble at ~20 mg/mL)”.
Regarding `CC1(C)OCC(CN(CC(=O)NC2CCCCC2)C(=O)c2ccc(Br)cc2)O1` (centres unmarked) [Compound 27], the Gelation result in series [1] (DMSO:H2O 1:1) is recorded as “G”; in series [1] (DMSO:H2O 1:2), “G”; in series [1] (EtOH:H2O (1:2)), “P”; in series [1] (EtOH), “P”; in series [2] (Hexane), “S (S, soluble (starting test at 20 mg/mL))”; in series [2] (Water), “S (S, soluble (starting test at 20 mg/mL))”. The “preliminary MGC (stable gel)” value in series [2] (DMSO:H2O 1:1) and in series [2] (DMSO:H2O 1:2) was 20.0 mg/mL in each case.
In the case of `O=C(CN(Cc1ccccc1)C(=O)c1ccc(C(=O)N(CC(=O)NC2CCCCC2)Cc2ccccc2)cc1)NC1CCCCC1` [Compound 29], the Gelation result is reported as “P” in series [1] (DMSO:H2O 1:1); “G” in series [1] (DMSO:H2O 1:2); “P” in series [1] (EtOH:H2O (1:2)); “UG” in series [1] (EtOH); “UG” in series [1] (Water); “I” in series [3] (Hexane). The “preliminary MGC (stable gel)” value in series [2] (DMSO:H2O 1:2) turned out to be 20.0 mg/mL. For the same compound, the “concentration” value in series [2] (Water) is 20.0 mg/mL.
Take `CCOC(=O)CNC(=O)CN(Cc1ccccc1)C(=O)c1ccc(C(=O)N(CC(=O)NCC(=O)OCC)Cc2ccccc2)cc1` [Compound 30]: the Gelation result in series [1] (DMSO:H2O 1:1) was “P”; in series [1] (DMSO:H2O 1:2), “P”; in series [1] (EtOH:H2O (1:2)) it was “P”; in series [2] (EtOH) it was “S (S, soluble (starting test at 20 mg/mL))”; in series [3] (Hexane), “I”; in series [3] (Water), “I”.
As to `COC1OC2COC(c3ccccc3)OC2C(O)C1N(CC(=O)NC1CCCCC1)C(C)=O` (centres unmarked) [Compound 31], the Gelation result in series [1] (DMSO:H2O 1:1) is “G”; in series [1] (DMSO:H2O 1:2), “G”; in series [1] (EtOH), “G”; in series [1] (Water), “P”; in series [2] (EtOH:H2O (1:2)) it was “S (S, soluble (starting test at 20 mg/mL))”; in series [3] (Hexane), “I”. Moreover, the “preliminary MGC (stable gel)” value in series [2] (DMSO:H2O 1:1), in series [2] (DMSO:H2O 1:2) and in series [2] (EtOH) was 10.0 mg/mL each time.
In the case of `CCOC(=O)CNC(=O)CN(C(=O)c1ccc(Br)cc1)C1C(OCC)OC2COC(c3ccccc3)OC2C1O` (centres unmarked) [Compound 32], the Gelation result in series [1] (DMSO:H2O 1:1) is given as “G”; in series [1] (DMSO:H2O 1:2) it was “UG”; in series [1] (EtOH:H2O (1:2)), “G”; in series [1] (Water) it was “P”; in series [2] (EtOH), “S (S, soluble (starting test at 20 mg/mL))”; in series [3] (Hexane), “I”. Further, the “preliminary MGC (stable gel)” value in series [2] (DMSO:H2O 1:1) and in series [2] (EtOH:H2O (1:2)) was 20.0 mg/mL each time. The “concentration” value in series [2] (DMSO:H2O 1:2) is recorded as 20.0 mg/mL.
As to `CCOC(=O)CNC(=O)CN(CCNC(=O)OC(C)(C)C)C(=O)Cc1ccc2ccccc2c1` [Compound 33], the Gelation result is “P” in series [1] (DMSO:H2O 1:1); “P” in series [1] (DMSO:H2O 1:2); “P” in series [1] (EtOH:H2O (1:2)); “P” in series [1] (Water); “S (S, soluble (starting test at 20 mg/mL))” in series [2] (EtOH); “I” in series [3] (Hexane).
`CCOC(=O)CNC(=O)CN(Cc1ccc(OC)cc1)C(=O)CCC(=O)NC1C(OC)OC2COC(c3ccccc3)OC2C1O` (centres unmarked) [Compound 34]: the Gelation result is recorded as “G” in series [1] (DMSO:H2O 1:1); “G” in series [1] (DMSO:H2O 1:2); “G” in series [1] (EtOH:H2O (1:2)); “G” in series [1] (EtOH); “G” in series [1] (Water); “I” in series [3] (Hexane). Moreover, the “preliminary MGC (stable gel)” value in series [2] (DMSO:H2O 1:1) was 20.0 mg/mL; in series [2] (DMSO:H2O 1:2), 10.0 mg/mL; in series [2] (EtOH:H2O (1:2)), 20.0 mg/mL; in series [2] (EtOH) it was 10.0 mg/mL; in series [2] (Water), 10.0 mg/mL. For the same compound, the “gelation properties (in words)” value in series [2] (screening of Table 3 compounds) is listed as “able to gelate in water as well as almost all the tested solvents”.
Turning to `COc1ccc(CN(CC(=O)NCS(=O)(=O)c2ccc(C)cc2)C(=O)c2ccc(Br)cc2)cc1` [Compound 35], the Gelation result is “G” in series [1] (DMSO:H2O 1:1); “G” in series [1] (DMSO:H2O 1:2); “G” in series [1] (EtOH:H2O (1:2)); “P” in series [1] (EtOH); “I” in series [3] (Hexane); “I” in series [3] (Water). Moreover, the entries for the “preliminary MGC (stable gel)” value in series [2] (DMSO:H2O 1:1), in series [2] (DMSO:H2O 1:2) and in series [2] (EtOH:H2O (1:2)) were 20.0 mg/mL, 20.0 mg/mL and 10.0 mg/mL, respectively.
As to `COc1ccc(CN(CC(=O)Nc2ccc(Oc3ccc(NC(=O)CN(Cc4ccc(OC)cc4)C(=O)c4ccc(Br)cc4)cc3)cc2)C(=O)c2ccc(Br)cc2)cc1` [Compound 36], the Gelation result in series [1] (DMSO:H2O 1:1) is given as “UG”; in series [1] (DMSO:H2O 1:2), “P”; in series [1] (EtOH:H2O (1:2)) it was “P”; in series [1] (Water), “P”; in series [2] (EtOH) it was “S (S, soluble (starting test at 20 mg/mL))”; in series [3] (Hexane) it was “I”. For the same compound, in series [2] (DMSO:H2O 1:1), the “concentration” value worked out at 20.0 mg/mL.
Consider `O=C(CN(C(=O)c1ccccc1)c1ccccc1)NC1CCCCC1` [Compound 39], for which the Gelation result is listed as “P” in series [1] (DMSO:H2O 1:1); “P” in series [1] (DMSO:H2O 1:2); “P” in series [1] (EtOH:H2O (1:2)); “P” in series [1] (Hexane); “P” in series [1] (Water); “S (S, soluble (starting test at 20 mg/mL))” in series [2] (EtOH).
Take `COC1OC(CO)C(O)C(O)C1N(CC(=O)NC1CCCCC1)C(=O)c1ccc(Br)cc1` (centres unmarked) [Compound 40]: the Gelation result is given as “G” in series [1] (DMSO:H2O 1:1); “G” in series [1] (DMSO:H2O 1:2); “P” in series [1] (EtOH:H2O (1:2)); “S (S, soluble (starting test at 20 mg/mL))” in series [2] (EtOH); “S (S, soluble (starting test at 20 mg/mL))” in series [2] (Hexane); “I” in series [3] (Water). The “preliminary MGC (stable gel)” value in series [2] (DMSO:H2O 1:1) and in series [2] (DMSO:H2O 1:2) was 20.0 mg/mL in each case.
In the case of `O=C(CN(CC(O)CO)C(=O)c1ccc(Br)cc1)NC1CCCCC1` (centres unmarked) [Compound 41], the Gelation result in series [2] (DMSO:H2O 1:1) was “S (S, soluble (starting test at 20 mg/mL))”; in series [2] (DMSO:H2O 1:2), “S (S, soluble (starting test at 20 mg/mL))”; in series [2] (EtOH:H2O (1:2)), “S (S, soluble (starting test at 20 mg/mL))”; in series [2] (EtOH), “S (S, soluble (starting test at 20 mg/mL))”; in series [2] (Water) it was “S (S, soluble (starting test at 20 mg/mL))”; in series [3] (Hexane), “I”.
For the compound `COc1ccc(CN(CC(=O)NCC(=O)O)C(=O)c2ccc(Br)cc2)cc1` [Compound 42], the Gelation result in series [1] (DMSO:H2O 1:1) was “P”; in series [1] (DMSO:H2O 1:2) it was “P”; in series [1] (EtOH:H2O (1:2)), “P”; in series [1] (Water), “P”; in series [2] (EtOH), “S (S, soluble (starting test at 20 mg/mL))”; in series [3] (Hexane) it was “I”.
